Data published in the supplement of paper PMC10883282.
± gives the standard deviation of the averaged measurements.

Tested on: HT1080
Experiment: relative viability vs DMSO control (72 h) (fraction); higher = more viable cells
Summary of the method: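 Relative viability is percent growth read by ATPLite and averaged over up to triplicate wells. Sarcoma cells were seeded in 384-well plates to reach 80–90% confluence and given 2.5 µl of serially diluted compound after 24 h, from source plates of 10 mM to 0.0002 mM. Incubation lasted 72 h at 37 °C, 5% CO2, with 0.1% DMSO vehicle and a 5 µM positive control, and the data were rescaled so 1 equals full and 0 equals none.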

Compound	relative viability (0.00017 µM)	relative viability (0.00051 µM)	relative viability (0.00152 µM)	relative viability (0.00457 µM)	relative viability (0.01372 µM)	relative viability (0.04115 µM)	relative viability (0.1235 µM)	relative viability (0.3704 µM)	relative viability (1.111 µM)	relative viability (3.333 µM)	relative viability (10 µM)
CO[C@H]1C[C@@H]2CC[C@@H](C)[C@@](O)(O2)C(=O)C(=O)N2CCCC[C@H]2C(=O)O[C@H]([C@H](C)C[C@@H]2CC[C@@H](OP(C)(C)=O)[C@H](OC)C2)CC(=O)[C@H](C)/C=C(\C)[C@@H](O)[C@@H](OC)C(=O)[C@H](C)C[C@H](C)/C=C/C=C/C=C/1C [Ridaforolimus]	1.1 ± 0.019	1.08 ± 0.02	1.13 ± 0.047	1.08 ± 0.03	1.03 ± 0.011	0.99 ± 0.028	0.983 ± 0.034	0.9952 ± 0.0077	0.9672 ± 0.0023	0.9615 ± 0.0033	0.934 ± 0.028
Cc1cnc(Nc2ccc(OCCN3CCCC3)cc2)nc1Nc1cccc(S(=O)(=O)NC(C)(C)C)c1 [Fedratinib]	1.11 ± 0.027	1.03 ± 0.056	1.08 ± 0.0082	1.06 ± 0.032	1.07 ± 0.044	1.05 ± 0.044	1.04 ± 0.009	1.03 ± 0.022	0.813 ± 0.015	0.391 ± 0.014	0.0298 ± 0.0037
Cn1cc(-c2cc3c(N4CCN(c5ncc([C@@](C)(N)c6ccc(F)cc6)cn5)CC4)ncnn3c2)cn1 [Avapritinib]	0.967 ± 0.065	1.03 ± 0.019	0.98 ± 0.042	1.01 ± 0.041	1 ± 0.017	1.01 ± 0.039	1.03 ± 0.048	1.01 ± 0.013	0.908 ± 0.029	0.905 ± 0.014	0.826 ± 0.023
CN1CCN(c2ccc3nc(-c4c(N)c5c(F)cccc5[nH]c4=O)[nH]c3c2)CC1 [Dovitinib]	1.1 ± 0.047	1.09 ± 0.053	1.05 ± 0.046	1.1 ± 0.028	1.09 ± 0.013	1.095 ± 0.0071	1.11 ± 0.023	1.155 ± 0.0091	0.975 ± 0.017	0.632 ± 0.023	0.154 ± 0.08
